Laboratory results from patent publication US20160184274A1, “Methods for inhibiting mesenchymal phenotype after epithelial-to-mesenchymal transition” (Fibrostatin, S.L., priority 2014, published 2016).

Assays:
[1] = tested on: patient-derived cisplatin-resistant mesenchymal NSCLC cells; details: WO/2014/006020; cited from earlier work
[2] = target: T1, trimeric intracellular GPBP (Homo sapiens, UniProt Q9Y5P4); assay: In vitro phosphorylation assay with trimeric intracellular GPBP; format: biochemical; details: T12 50 μM; autophosphorylation, γ[32P]ATP; FIG. 2
T1 construct: made in house; host or cells: Sf9 insect cells (baculovirus), purified from cell lysates
T1 sequence (Q9Y5P4 1-624): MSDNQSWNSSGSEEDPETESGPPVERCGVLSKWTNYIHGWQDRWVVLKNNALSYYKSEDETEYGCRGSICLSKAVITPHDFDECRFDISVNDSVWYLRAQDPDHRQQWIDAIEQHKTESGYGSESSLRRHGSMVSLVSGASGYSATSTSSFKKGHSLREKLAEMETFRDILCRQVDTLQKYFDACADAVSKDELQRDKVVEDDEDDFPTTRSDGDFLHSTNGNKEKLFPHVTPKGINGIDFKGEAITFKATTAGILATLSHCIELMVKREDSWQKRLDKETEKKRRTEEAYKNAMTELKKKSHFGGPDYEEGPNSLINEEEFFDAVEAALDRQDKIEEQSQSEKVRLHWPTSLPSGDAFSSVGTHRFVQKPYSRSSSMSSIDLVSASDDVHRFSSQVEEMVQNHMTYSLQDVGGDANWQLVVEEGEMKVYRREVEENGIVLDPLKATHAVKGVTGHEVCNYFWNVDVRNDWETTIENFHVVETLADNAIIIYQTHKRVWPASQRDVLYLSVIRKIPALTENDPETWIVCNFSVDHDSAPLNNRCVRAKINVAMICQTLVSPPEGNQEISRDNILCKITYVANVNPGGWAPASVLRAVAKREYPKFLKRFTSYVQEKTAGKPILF
Method: FIG. 2. […] Multimeric extracellular and trimeric intracellular GPBP were purified by affinity chromatography and subsequent gel filtration chromatography, and used for in vitro phosphorylation assays in absence (−) or presence (+) of T12 (50 μM). Reactions were subjected to SDS-PAGE, Western blot onto PVDF membrane and autoradiography, and further protein detected with anti-FLAG primary antibodies. Autoradiography and anti-FLAG® bands were quantified with WCIF IMAGEJ® software, and the normalized kinase activity estimated. Shown are normalized kinase activities. […] Samples were analyzed in triplicate and the data represents the Mean (±SEM) of three independent assays.
FLAG®-tagged GPBP was expressed using Bac-to-Bac® Baculovirus Expression System. […] Finally, purified protein was quantified with Bio-Rad Protein Assay and stored at −20° C. […]
Typically, about 270 ng of purified FLAG®-GPBP protein, either extracellular multimer or intracellular trimer, were incubated in presence or absence of T12 […] in a kinase assay buffer containing 25 mM disodium β-glycerophosphate, 8 mM MgCl2, 0.5 mM EDTA, 0.5 mM EGTA, 1 mM DTT, 5 mM MnCl2 during 10 min at 37° C. […] Then reactions were stopped with SDS-PAGE loading buffer and heat (95° C., 3 min) and analyzed by SDS-PAGE, electro-transference to PVDF membrane (Merck Millipore) and autoradiography. […]

For `COc1ccc(-c2ccc(-c3cccc(C)c3)c(C)c2)c(CCC(=O)O)c1` [T12, 3-[4″-methoxy-3,2′-dimethyl-(1,1′;4′,1″)terphenyl-2″-yl] propionic acid], the toxicity [1] is given as “high-toxicity” and the “normalized kinase activity of GPBP” value [2] is given as “not intracellular GPBP trimers”.
